Data reported in patent EP0877020A1, “ACRIDONE DERIVATIVE” (Eisai Co., Ltd., priority 1995, dated 1997).
Like-named read-outs stand apart in the source and are kept apart here.

Experiments:
[1] = tested on: RBL-2H3 cells; experiment: Repression of liberation of mediators (serotonin, histamine, arachidonic acid) from RBL-2H3 cells; assay type: cell-based, rat
Text: [Study on activity to repress the liberation of various mediators from rat basophilic leukemic cell strain (RBL-2H3) and activity to repress thyrosine kinase]
The cells of RBL-2H3, one species of rat cell line, carry out not only the liberation of histamine and serotonin but also the formation and liberation of prostaglandins, TNFα, etc., i.e. inflammatory mediators, owing to the specific antigen of the IgE antibody bound to the IgE receptor. In the present test system, therefore, the cells were marked with serotonin and arachidonic acid labeled in advance with [^3H] and cultured in the presence of a compound under test and in the absence thereof and the amounts of the mediators liberated in the culture medium were measured. Thus, the given compounds were tested for activity to repress the liberation of various mediators. The TNFα was determined by means of bioassay.

[2] = tested on: TNFα; experiment: Repression of formation and liberation of TNFα (bioassay); assay type: cell-based, rat; conditions: at the same concentration (12 µM)
[3] = tested on: phospholipase C; experiment: Repression of activation of phospholipase C, intracellular substrate of the thyrosine kinase; assay type: cell-based; conditions: at the same concentration (12 µM)
[4] = tested on: Jurkat cells (T-cells); experiment: Thyrosine kinase selectivity in Jurkat cells (antigenic stimulus); assay type: cell-based
[5] = Rattus norvegicus, RBL-2H3 cells, [3H]-labelled serotonin, read-out: IC50 (µM) in liberation of serotonin from RBL-2H3 cells

`Cc1ccc2c(=O)c3ccccc3n(CCCN)c2c1C` [Example 2, 3,4-Dimethyl-10-(3-aminopropyl)-9-acridone] was tested, and the IC50 ([1]; Rattus norvegicus, RBL-2H3, RBL-2H3 cells, [3H]-labelled serotonin, read-out: IC50 (µM) in liberation of serotonin from RBL-2H3 cells) was 6 µM.

`Cc1c(F)cc2c(=O)c3ccccc3n(CCCN)c2c1C` [Example 1, 2-Fluoro-3,4-dimethyl-10-(3-aminopropyl)-9-acridone] showed an IC50 [1, 5] of 1.7 µM.

Work on “3,4-Dimethyl-10-[3-(2-imidazoylmethyl)aminopropyl]-9 acridone [Example 32]” yielded an IC50 ([1]; RBL-2H3 cells, [3H]-labelled serotonin, read-out: IC50 (µM) in liberation of serotonin from RBL-2H3 cells) of 0.6 µM.

Compound `Cc1ccc2c(=O)c3ccccc3n(CCCNCc3ccccc3)c2c1C` [Example 19, 3,4-Dimethyl-10-(3-benzylaminopropyl)-9-acridone] has an IC50 [1, 5] of 3 µM.

Compound `Cc1ccc2c(=O)c3ccccc3n(CCCN)c2c1C.O=C(O)C(=O)O` [Example 3, 3,4-Dimethyl-10-(3-aminopropyl)-9-acridone oxalate] has an IC50 ([1]; Rattus norvegicus, RBL-2H3, due to the antigenic stimulus, read-out: IC50 value, liberation of arachidonic acid from the RBL-2H3 cells) of 12 µM, an IC50 ([1]; Rattus norvegicus, RBL-2H3, due to the antigenic stimulus, read-out: IC50 value, liberation of histamine from the RBL-2H3 cells) of 12 µM and an IC50 ([1]; Rattus norvegicus, RBL-2H3, due to the antigenic stimulus, read-out: IC50 value, liberation of serotonin from the RBL-2H3 cells) of 12 µM. For the same compound, the “formation and liberation of TNFα” value [2] was “repressed”, the “activation of phospholipase C” value [3] was “repressed” and the “activity to repress the antigenic stimulus in the Jurkat cells” value ([4]; Jurkat cells) was “absolutely no activity”. The “activity to repress such thyrosine kinases as p561ck and fyn” value ([4]; concluded from the Jurkat cell test) was “no activity”.
